Patent US7399868B2, “4-(Heteroaryl-methyl and substituted heteroaryl-methyl)-imidazole-2-thiones acting as alpha2 adrenergic agonists” (Allergan, Inc., priority 2004, dated 2008)
One block for each compound: values may come before it.

Key:
[1] = target: T1, alpha2B adrenergic receptor (Homo sapiens, UniProt P18089); assay: Receptor Selection and Amplification Technology (RSAT) assay, alpha2B; type: cell-based; details: ratio of maximal effect to that of standard full agonist brimonidine (UK14304)
T1 construct: expressed in transfected cells; host or cells: NIH-3T3
T1 sequence (P18089 1-450): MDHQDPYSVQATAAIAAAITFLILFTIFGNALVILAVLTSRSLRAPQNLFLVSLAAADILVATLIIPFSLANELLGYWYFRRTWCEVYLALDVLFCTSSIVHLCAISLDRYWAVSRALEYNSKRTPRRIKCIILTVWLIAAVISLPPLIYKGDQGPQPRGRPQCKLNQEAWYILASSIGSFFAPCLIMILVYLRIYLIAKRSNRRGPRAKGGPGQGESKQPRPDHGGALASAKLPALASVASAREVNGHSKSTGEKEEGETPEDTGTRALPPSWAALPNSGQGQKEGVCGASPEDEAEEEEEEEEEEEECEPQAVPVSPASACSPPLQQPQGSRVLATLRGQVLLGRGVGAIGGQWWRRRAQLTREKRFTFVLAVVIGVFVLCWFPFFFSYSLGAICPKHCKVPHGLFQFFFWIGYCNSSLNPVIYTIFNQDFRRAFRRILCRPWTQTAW
Source text: (§1) The imidazole-2-thione compounds of the invention are agonists of alpha2 adrenergic receptors. […] Al., 1995, Pharmacol. Toxicol. 76, pp. 308-311 (incorporated herein by reference) and is also described below. Another reference pertinent to this assay is Conklin et al. (1993) Nature 363:274-6, also incorporated herein by reference.
(§2) Receptor Selection and Amplification Technology (RSAT) Assay
The RSAT assay measures a receptor-mediated loss of contact inhibition that results in selective proliferation of receptor-containing cells in a mixed population of confluent cells. The increase in cell number is assessed with an appropriate transfected marker gene such as ∃-galactosidase, the activity of which can be easily measured in a 96-well format. Receptors that activate the G protein, Gq, elicit this response. Alpha2 receptors, which normally couple to Gi, activate the RSAT response when coexpressed with a hybrid Gq protein that has a Gi receptor recognition domain, called Gq/i5.
NIH-3T3 cells are plated at a density of 2×10^6 cells in 15 cm dishes and maintained in Dulbecco's modified Eagle's medium supplemented with 10% calf serum. One day later, cells are cotransfected by calcium phosphate precipitation with mammalian expression plasmids encoding p-SV-β-galactosidase (5-10 μg), receptor (1-2 μg) and G protein (1-2 μg). 40 μg salmon sperm DNA may also be included in the transfection mixture. Fresh media is added on the following day and 1-2 days later, cells are harvested and frozen in 50 assay aliquots. Cells are thawed and 100 μl added to 100 μl aliquots of various concentrations of drugs in triplicate in 96-well dishes. Incubations continue 72-96 hr at 37° C. After washing with phosphate-buffered saline, ∃-galactosidase enzyme activity is determined by adding 200 μl of the chromogenic substrate (consisting of 3.5 mM o-nitrophenyl-β-D-galactopyranoside and 0.5% nonidet P-40 in phosphate buffered saline), incubating overnight at 30° C. and measuring optical density at 420 nm. The absorbance is a measure of enzyme activity, which depends on cell number and reflects a receptor-mediated cell proliferation. The efficacy or intrinsic activity is calculated as a ratio of the maximal effect of the drug to the maximal effect of a standard full agonist for each receptor subtype. Brimonidine, also called UK14304, the chemical structure of which is shown below, is used as the standard agonist for the alpha2A, alpha2B and alpha2C receptors.
The results of the RSAT assay with several exemplary compounds of the invention are disclosed in Table 1 above together with the chemical formulas of these examplary compounds. NA stands for “not active” at concentrations less than 10 micromolar.

male Sprague-Dawley rats = assay: Sedative activity (exploratory behavior/locomotor) in rats; type: in vivo, rat; details: intraperitoneally, up to a dose of 1 mg/kg
Description: To test sedation, six male Sprague-Dawley rats are given up to 3 mg/kg of the test compound in a saline or DMSO vehicle by intraperitoneal injection (i.p.). Sedation is graded 30 minutes following administration of the drug by monitoring locomotor skills as follows.
The Sprague-Dawley rats are weighed and 1 ml/kg body weight of an appropriate concentration (ie. 3 mg/ml for a final dose of 3 mg/kg) drug solution is injected intraperitoneally. Typically the test compound is formulated in approximately 10 to 50% DMSO. The results are compared to controls that are injected with 1 ml/kg saline or 10 to 50% DMSO. Rat activity is then determined 30 minutes after injection of the drug solution. Rats are placed in a dark covered chamber and a digicom analyzer (Omnitech Electronic) quantitates their exploratory behavior for a five-minute period. The machine records each time the rat interrupts an array of 32 photoelectric beams in the X and Y orientation.
Effects on Cardiovascular System

[2] = target: T2, alpha2C adrenergic receptor (Homo sapiens, UniProt P18825); assay: Receptor Selection and Amplification Technology (RSAT) assay, alpha2C; type: cell-based; details: ratio of maximal effect to that of standard full agonist brimonidine (UK14304)
T2 construct: expressed in transfected cells; host or cells: NIH-3T3
T2 sequence (P18825 1-462): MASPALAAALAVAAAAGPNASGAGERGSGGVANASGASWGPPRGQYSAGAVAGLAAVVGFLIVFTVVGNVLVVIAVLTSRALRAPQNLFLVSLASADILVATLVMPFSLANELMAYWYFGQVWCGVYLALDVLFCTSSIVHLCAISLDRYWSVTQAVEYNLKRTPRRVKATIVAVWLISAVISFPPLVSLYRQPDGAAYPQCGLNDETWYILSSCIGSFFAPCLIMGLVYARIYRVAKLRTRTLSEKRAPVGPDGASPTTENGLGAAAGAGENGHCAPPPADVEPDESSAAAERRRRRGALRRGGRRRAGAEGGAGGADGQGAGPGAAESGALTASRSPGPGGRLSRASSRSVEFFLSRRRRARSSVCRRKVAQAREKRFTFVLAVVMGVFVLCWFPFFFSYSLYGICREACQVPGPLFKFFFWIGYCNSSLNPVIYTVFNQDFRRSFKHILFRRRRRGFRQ
Source text: as §1, §2
The RSAT assay measures a receptor-mediated loss of contact inhibition that results in selective proliferation of receptor-containing cells in a mixed population of confluent cells. The increase in cell number is assessed with an appropriate transfected marker gene such as ∃-galactosidase, the activity of which can be easily measured in a 96-well format. […]
NIH-3T3 cells are plated at a density of 2×10^6 cells in 15 cm dishes and maintained in Dulbecco's modified Eagle's medium supplemented with 10% calf serum. […] After washing with phosphate-buffered saline, ∃-galactosidase enzyme activity is determined by adding 200 μl of the chromogenic substrate (consisting of 3.5 mM o-nitrophenyl-β-D-galactopyranoside and 0.5% nonidet P-40 in phosphate buffered saline), incubating overnight at 30° C. and measuring optical density at 420 nm. The absorbance is a measure of enzyme activity, which depends on cell number and reflects a receptor-mediated cell proliferation. […]

[3] = tested on: rats with ligated L5 and L6 spinal nerves; assay: Chung model of neuropathic pain (tactile allodynia, von Frey hairs); type: in vivo, rat; details: 30 min following drug administration, p<0.001 compared to pretreatment
Source text: Alleviation of Chronic Pain
A model in accordance with Kim and Chung 1992, Pain […], pp 355-363 (Chung model), for chronic pain (in particular peripheral neuropathy) involves the surgical ligation of the L5 (and optionally the L6) spinal nerves on one side in experimental animals. Rats recovering from the surgery gain weight and display a level of general activity similar to that of normal rats. However, these rats develop abnormalities of the foot, wherein the hindpaw is moderately everted and the toes are held together. More importantly, the hindpaw on the side affected by the surgery appears to become sensitive to pain from low-threshold mechanical stimuli, such as that producing a faint sensation of touch in a human, within about 1 week following surgery. This sensitivity to normally non-painful touch is called “tactile allodynia” and lasts for at least two months. […]
Tactile allodynia is measured prior to and 30 minutes after drug administration using von Frey hairs that are a series of fine hairs with incremental differences in stiffness. […] The applied force has been calculated to range from 0.41 to 15.1 grams. […] The 50% paw withdrawal threshold is determined using the method of Dixon, W. J., Ann. […] The post-drug threshold is compared to the pre-drug threshold and the percent reversal of tactile sensitivity is calculated based on a normal threshold of 15.1 grams. […]

SMILES: S=c1[nH]cc(Cn2ccc3c(Cl)cccc32)[nH]1 [Compound 1, 4-(4-chloro-indol-1-ylmethyl)-1,3-dihydro-imidazole-2-thione]
Intrinsic Activity Alpha 2B [1]: 1.17

SMILES: Cc1cccc2ccn(Cc3c[nH]c(=S)[nH]3)c12 [Compound 2, 4-(7-methyl-indol-1-ylmethyl)-1,3-dihydro-imidazole-2-thione]
Intrinsic Activity Alpha 2B [1]: 1.01

SMILES: Fc1cccc2ccn(Cc3c[nH]c(=S)[nH]3)c12 [Compound 3, 4-(7-fluoro-indol-1-ylmethyl)-1,3-dihydro-imidazole-2-thione]
sedative effect (male Sprague-Dawley rats): no sedative effect
Intrinsic Activity Alpha 2B [1]: 1.07

SMILES: S=c1[nH]cc(Cn2ccc3cccc(Cl)c32)[nH]1 [Compound 4, 4-(7-chloro-indol-1-ylmethyl)-1,3-dihydro-imidazole-2-thione]
Intrinsic Activity Alpha 2B [1]: 1.17

SMILES: S=c1[nH]cc(Cn2ccc3cccc(Br)c32)[nH]1 [Compound 5, 4-(7-Bromo-indol-1-ylmethyl)-1,3-dihydro-imidazole-2-thione]
sedative effect (male Sprague-Dawley rats): no sedative effect
Intrinsic Activity Alpha 2B [1]: 1.01
Intrinsic Activity Alpha 2C [2]: 0.77

SMILES: S=c1[nH]cc(Cn2ccc3ccc(Cl)c(Cl)c32)[nH]1 [Compound 6, 4-(6,7-Dichloro-indol-1-ylmethyl)-1,3-dihydro-imidazole-2-thione]
Intrinsic Activity Alpha 2B [1]: 0.98

SMILES: S=c1[nH]cc(Cn2ccc3ccnc(Cl)c32)[nH]1 [Compound 7, 4-(7-chloro-pyrrolo[2,3-c]pyridin-1-ylmethyl)-1,3-dihydro-imidazole-2-thione]
Intrinsic Activity Alpha 2B [1]: 1.5

SMILES: S=c1[nH]cc(Cn2ccc3ccc(Cl)nc32)[nH]1 [Compound 8, 4-(6-Chloro-pyrrolo[2,3-b]pyridin-1-ylmethyl)-1,3-dihydro-imidazole-2-thione]
Intrinsic Activity Alpha 2B [1]: 0.76

Intrinsic Activity Alpha 2B [1]: 1.16
SMILES: Cc1cccc(C(C)c2c[nH]c(=S)[nH]2)n1 (stereo not drawn) [Compound 9, 4-[1-(6-methyl-pyridin-2-yl)-ethyl]-1,3-dihydro-imidazole-2-thione]

SMILES: S=c1[nH]cc(Cc2cccs2)[nH]1 [Compound 10, 4-thiophen-2-ylmethyl-1,3-dihydro-imidazole-2-thione]
Intrinsic Activity Alpha 2B [1]: 1.09

Intrinsic Activity Alpha 2B [1]: 1.13
SMILES: S=c1[nH]cc(CN2CCCc3ccccc32)[nH]1 [Compound 11, 4-(3,4-dihydro-2H-quinolin-1-ylmethyl)-1,3-dihydro-imidazole-2-thione]

Intrinsic Activity Alpha 2B [1]: 0.99
SMILES: CC(c1c[nH]c(=S)[nH]1)c1ccnc2c1CCCC2 (stereo not drawn) [Compound 12, 4-[1-(5,6,7,8-tetrahydro-quinolin-4-yl)-ethyl]-1,3-dihydro-imidazole-2-thione]

SMILES: CC(c1c[nH]c(=S)[nH]1)c1coc2ccccc12 (stereo not drawn) [Compound 14, 4-(1-benzofuran-3-yl-ethyl)-1,3-dihydro-imidazole-2-thione]
Intrinsic Activity Alpha 2B [1]: 1.0
% Pain Reversal ([3]; 30 μg/kg i.p.): 20%
% Pain Reversal ([3]; 300 μg/kg i.p.): 80%
